According to PMC6797481, “Identification of an allosteric binding site on the human glycine transporter, GlyT2, for bioactive lipid analgesics” (eLife, 2019):
Positions count from the first letter of the chain named.

What was measured:
GlyT2 V432A mutant = biological target: T1, GlyT2 V432A mutant (Homo sapiens, UniProt Q9Y345, V432A); assay: Glycine transport currents, two electrode voltage clamp, oocytes expressing GlyT2 V432A; assay type: cell-based; conditions: GlyT2 V432A; for IC50: greater than maximum concentration applied (footnote a)
T1 construct: expressed in transfected cells; host or cells: Xenopus laevis oocytes (cRNA injection)
T1 sequence (Q9Y345 1-797 V432A): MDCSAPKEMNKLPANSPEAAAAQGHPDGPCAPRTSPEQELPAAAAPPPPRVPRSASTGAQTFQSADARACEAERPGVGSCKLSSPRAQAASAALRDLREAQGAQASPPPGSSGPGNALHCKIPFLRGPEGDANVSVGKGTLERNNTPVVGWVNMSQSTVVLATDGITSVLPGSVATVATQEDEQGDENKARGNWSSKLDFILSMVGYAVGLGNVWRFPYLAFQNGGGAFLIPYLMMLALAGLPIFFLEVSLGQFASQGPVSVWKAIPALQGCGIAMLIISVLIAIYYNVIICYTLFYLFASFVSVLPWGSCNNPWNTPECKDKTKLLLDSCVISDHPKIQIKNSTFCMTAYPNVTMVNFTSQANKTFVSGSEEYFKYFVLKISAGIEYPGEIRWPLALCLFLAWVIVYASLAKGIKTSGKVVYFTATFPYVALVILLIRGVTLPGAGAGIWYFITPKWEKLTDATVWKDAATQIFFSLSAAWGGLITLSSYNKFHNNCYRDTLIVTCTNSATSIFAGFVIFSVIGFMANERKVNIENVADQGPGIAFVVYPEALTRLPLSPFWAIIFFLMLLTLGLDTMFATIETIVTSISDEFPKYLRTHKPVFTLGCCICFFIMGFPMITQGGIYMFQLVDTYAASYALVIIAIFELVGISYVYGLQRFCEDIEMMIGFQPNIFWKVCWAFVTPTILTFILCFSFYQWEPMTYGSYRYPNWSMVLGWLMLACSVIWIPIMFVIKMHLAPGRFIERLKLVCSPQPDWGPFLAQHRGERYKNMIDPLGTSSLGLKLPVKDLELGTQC
Procedure: (§1) Glycine was first applied to establish maximal transport current.
(§2) Compounds were tested for inhibition of glycine transport on Xenopus laevis oocytes expressing mutant GlyT1 and GlyT2 transporters. n values are in brackets, with measurements taken from at least 2 batches of oocytes.

GlyT2 F428A mutant = biological target: T2, GlyT2 F428A mutant (Homo sapiens, UniProt Q9Y345, F428A); assay: Glycine transport currents, two electrode voltage clamp, oocytes expressing GlyT2 F428A; assay type: cell-based; conditions: GlyT2 F428A; mean ± SEM
T2 construct: expressed in transfected cells; host or cells: Xenopus laevis oocytes (cRNA injection)
T2 sequence (Q9Y345 1-797 F428A): T1 sequence (Q9Y345 1-797 V432A) with F428A, A432V
Procedure: as §1, §2

GlyT1 WT = system: GlyT1 WT; parameters: method as in earlier work; conditions: previously published; cited from earlier work
GlyT2 WT = biological target: T3, GlyT2 WT (Homo sapiens, UniProt Q9Y345); parameters: expressed in transfected cells; host or cells: Xenopus laevis oocytes (cRNA injection); conditions: WT GlyT2, previously published, cited from earlier work; for IC50: mean (95% CI); for GlyT2 % max. inhibition: mean ± SEM
T3 sequence (Q9Y345 1-797): T1 sequence (Q9Y345 1-797 V432A) with A432V

SMILES	% Max. inhibition (% inhibition at the highest concentration of inhibitor used) (GlyT2 V432A mutant; footnote b)	IC50 (GlyT2 V432A mutant) [µM]	% Max. inhibition (GlyT2 F428A mutant) [%]	IC50 (GlyT1 WT) [µM]	IC50 (GlyT2 WT) [µM]	GlyT2 % max. inhibition (GlyT2 WT) [%]	% Max. inhibition (GlyT2 V432A mutant; mean ± SEM)
CCCCCC/C=C\CCCCCCCC(=O)NCC(=O)O [C16 ω7 Glycine]	44.2 ± 6.3^b (p=0.0009) %	> 10	56.5	> 10	1.5	92.5 ± 1.6	
CCC=CCCCCCCCCCCCC(=O)NCC(=O)O [C16 ω3 Glycine]		> 10		> 10	0.81	65.3 ± 1.9	1.0 ± 3.0 (p=0.0193) %
